According to patent publication US20030226158A1, “Cds1 knockout cells and mice, and their utilization” (priority 2000, published 2003):

Tested on: p53 protein
Assay: X-ray irradiation-induced p53 protein expression in ES cells, western blotting
Type: cell-based, mouse
Settings: X-ray irradiated, western blotting with antibody against p53
Experimental: The analysis was done by western blotting.
ES cell lines in which one or both Cds1 (Chk2) alleles were inactivated (Cds1 (Chk2)+/− and Cds1 (Chk2)−/−) were treated with trypsin and counted. Then, a constant number of ES cells were plated in 6-well plates in which feeder cells had been planted in advance. MEF (mouse embryonic fibroblast) was used as feeder cells. The cells were treated with X ray and cultured in an CO2 incubator for 6 hours. Then, a cell extract was prepared, the proteins were separated by SDS-PAGE, and transferred to a PVDF membrane. p53 protein was quantified by conducting western blotting using an antibody against p53.

Cn1c(=O)c2c(ncn2C)n(C)c1=O [caffeine]
induction of p53 expression after irradiation (Cds1-/- ES cells): inhibited
induction of p53 expression after irradiation (wild type ES cells): inhibited
